In patent US20200102254A1, “BIOFERTILIZER AND METHODS OF MAKING AND USING SAME” (President and Fellows of Harvard College, priority 2017, published 2020):

Tests used:
[1] = tested on: glutamine synthetase (GS); experiment: NH3 secretion in the hybrid device after addition of GS inhibitor; assay type: cell-based, X. autotrophicus; settings: 50 μM inhibitor
Method: Eappl is defined as the voltage difference between the working (OER) and counter/reference (HER) electrodes in a two-electrode configuration. After inoculation with X. autotrophicus (initial OD600=0.2), the reactor was purged with the gas mixture at a flow rate between 5 to 20 mL min^−1. These electrochemical cells were stirred at 350 rpm to facilitate mass transport and were immersed in a 30° C. water bath. The electrolyte was sampled every 12 or 24 hr to quantify OD600 and N accumulation. For time points in which […] (GS) inhibitor phosphinothricin (PPT) was added with final concentration of 50 μM, aliquots were sampled prior to inhibitor addition. The reported data are based on at least three biological replicates (n≥3).
Ntotal was determined from sampled aliquots after persulfate digestion and based on the absorption of oxidized phenol under acidic conditions (Hach Company 2672245). Nsoluble was determined similarly as Ntotal, except that the supernatants after 10,000 rpm centrifugation were digested in persulfate and subsequently analyzed. NH3 was also determined from the supernatants after centrifugation, but based on the salicylate method that is selective to ammonia (Hach Company TNT830). […] For each category of nitrogen content, the nitrogen concentrations were determined by comparing the solution absorbance with those in standard curves. When PPT was added to induce NH3 secretion, the measured nitrogen concentrations presented in FIG. 5B and Table 3 was subtracted from the nitrogen in PPT (2 nitrogen atoms per each PPT molecule for Ntotal, and 1 nitrogen atom per each PPT for NH3). The PPT nitrogen content was also subtracted when calculating ηelec, NRR in Table 1.

nitrogenase = settings: competitive inhibition of nitrogenase; cited from earlier work
X. autotrophicus = settings: read-out: half maximum inhibitory concentration (IC50)

CP(=O)(O)CC[C@H](N)C(=O)O [PPT, phosphinothricin]
biomass of X. autotrophicus after inhibitor addition [1]: stagnated
concentration of NNH3 at end of experiment ([1]; Eappl=3.0 V): ~0.8 mM
accumulated Ntotal ([1]; Eappl=3.0 V, n=3): 47 ± 3 mg/L
concentration of N in free NH3 in the solution (NNH3) at end of experiment ([1]; Eappl=3.0 V, n=3): 11 ± 2 mg/L
biomass of X. autotrophicus after inhibitor addition ([1]; listed as phosphinothricin): slows

[HH] [H2, hydrogen]
inhibition constant Ki(D2) (nitrogenase): ~11 kPa

[Co+2] [Co2+]
IC50 (X. autotrophicus): ~50 µM
